Results reported in patent publication US8748105B2, “Method for selecting a candidate drug compound” (Pepscan Systems B.V., priority 2003, dated 2014).
Starred links: 1 amine or outer side, 2 acyl side, 3 side chain; linkers in the order of their positions; H or OH if unused. Positions of bridges follow the written chain, without caps; N, C: chain ends. T2 = dibromobenzene scaffold (1,3-bis(bromomethyl)benzene, m-dibromoxylene) forming thioether links to the two Cys; resin = solid-support resin (cross-linked polystyrene) to which the C-terminal amino acid is attached; mXylylene = c1cc(C[*:1])cc(C[*:2])c1

What was measured:
anti-FSH-β mAb 2 = assay: Loopscan: sandwich ELISA of solid-phase cyclized or linear 12-mer FSH β3-loop peptides; format: binding; conditions: solid-phase 12-mer peptides; mAb 2 up to 10 μg/mL
Description: FIG. 12: ELISA results of the binding of anti-FSH monoclonal antibody 2 (10 μg/mL) in 3 μL miniwells containing overlapping a) cyclized (with m-dibromoxylene) and b) linear 12-mer peptides of the β3-loop of FSH-beta; Sequence of binding peptide: (AA68-AA79) Ac-CRVPGAAHHADSLC-resin (SEQ ID NO:5).
The formation of peptide loops via reaction of a linear peptide containing two free sulfhydryl groups with 1,3-bis(bromomethyl)benzene scaffold was also carried out on a polypropylene surface grafted with polyacrylic acid (6% solution containing CuSO4, irradiation using γ-radiation at a dose of 12 kGy) and functionalized with amino groups via coupling with t-butyloxycarbonyl-hexamethylene diamine (Boc-HMDA) using dicyclohexylcarbodiimide (DCC) with N-hydroxybenzotriazole (HOBt) and subsequent deprotection of the Boc-groups using trifluoroacetic acid (TFA). Standard Fmoc peptide chemistry was used to synthesize a set of overlapping linear peptides of 14 amino acid long peptides corresponding to the β3-loop of FSH in separate microwells of 3 μL each using our previously developed minicard format. Each peptide was synthesized with a Cys-residue in position 1, followed by the overlapping sequences of the FSH β3-loop (2-13, 3-14, 4-15, etc.) followed by another Cys-residue in the final position. […]

[1] = target: mAb 2 (anti-FSHβ monoclonal antibody); assay: Binding of looped peptide mimics of FSH-β to anti-FSH-β monoclonal antibody mAb 2 (Kd)
Text: We used the synthetic strategy for structural fixation of linear peptides as outlined above. We tested the capacity of these small peptide-based beta-FSH mimics to bind to a number of different monoclonal antibodies specific for beta-FSH.

[2] = target: mAb 3468 (anti-beta-CG monoclonal antibody); assay: Binding of beta-CG mimics (T4 double-loop constructs) to monoclonal antibody 3468 (Kd)
Text: For the inhibition of the specific interaction with hCG and its receptor there is a need for compounds which structurally mimic the hormone. […] It is, therefore, likely that binding of beta-CG to the receptor also involves a discontinuous binding on the hormone. Provided is the design and synthesis of small peptide-based beta-CG mimics that strongly bind to monoclonal antibody 3468. We used the synthetic strategy for structural fixation of linear peptides as outline above.
The beta-CG mimics are advantageously used for the production of antisera that react specifically with hCG.

[3] = target: mAb 1 (monoclonal antibody specific for beta-FSH); assay: Binding of beta-FSH mimics (T4 double-loop constructs) to beta-FSH-specific monoclonal antibody mAb 1 (Kd)
Text: For the inhibition of the specific interaction with beta-FSH and its receptor, there is a need for structural mimics of the hormone. Although there is no crystallographic structure describing the interaction of beta-FSH with its receptor, it is very likely that this binding site is discontinuous in nature. We designed and synthesized a number of double-loop peptide construct on a tetrabromo-(T4)scaffold that could be used as beta-FSH mimics. We used the synthetic strategy for structural fixation of linear peptides as outlined above. We tested the capacity of these small peptide-based beta-FSH mimics to bind to a number of different monoclonal antibodies specific for beta-FSH. […] Furthermore, the beta-FSH mimics can be used successfully for the production of antisera that react specifically with beta-FSH.

Row | Substance | binding to anti-FSH-β mAb 2 in sandwich ELISA (in words) (anti-FSH-β mAb 2) | Kd [1] [nM] | Kd [2] [µM] | Kd [3] [nM]
1 | Ac-CRVPGAAHHADSLC-resin (linker 1-14 via mXylylene (inferred); also: C-terminus resin-bound) [68-79] | binds strongly | – | – | –
2 | c-T2-[Ac-CRVPGAAHHADSLC-NH2] (linker 1-14 via T2 (inferred)) [compound 1] | – | 2500 | 15 | 270
